The values that follow come from patent US20250205344A1, “2,4-DIOXOTETRAHYDROPYRIMIDINYL DERATIVES AS DEGRONS IN PROTACS” (GLAXOSMITHKLINE INTELLECTUAL PROPERTY DEVELOPMENT LIMITED, priority 2022, published 2025).

In this assay the target is T1, Androgen Receptor (Homo sapiens, UniProt P10275, T878A).
T1 construct: the AR gene was modified, using CRISPR/Cas9 editing, so the expressed AR protein included an 11 amino acid HiBiT tag; endogenous in cells; host or cells: clonal LnCaP-derived line, AR gene edited by CRISPR/Cas9
T1 sequence (P10275 whole entry T878A): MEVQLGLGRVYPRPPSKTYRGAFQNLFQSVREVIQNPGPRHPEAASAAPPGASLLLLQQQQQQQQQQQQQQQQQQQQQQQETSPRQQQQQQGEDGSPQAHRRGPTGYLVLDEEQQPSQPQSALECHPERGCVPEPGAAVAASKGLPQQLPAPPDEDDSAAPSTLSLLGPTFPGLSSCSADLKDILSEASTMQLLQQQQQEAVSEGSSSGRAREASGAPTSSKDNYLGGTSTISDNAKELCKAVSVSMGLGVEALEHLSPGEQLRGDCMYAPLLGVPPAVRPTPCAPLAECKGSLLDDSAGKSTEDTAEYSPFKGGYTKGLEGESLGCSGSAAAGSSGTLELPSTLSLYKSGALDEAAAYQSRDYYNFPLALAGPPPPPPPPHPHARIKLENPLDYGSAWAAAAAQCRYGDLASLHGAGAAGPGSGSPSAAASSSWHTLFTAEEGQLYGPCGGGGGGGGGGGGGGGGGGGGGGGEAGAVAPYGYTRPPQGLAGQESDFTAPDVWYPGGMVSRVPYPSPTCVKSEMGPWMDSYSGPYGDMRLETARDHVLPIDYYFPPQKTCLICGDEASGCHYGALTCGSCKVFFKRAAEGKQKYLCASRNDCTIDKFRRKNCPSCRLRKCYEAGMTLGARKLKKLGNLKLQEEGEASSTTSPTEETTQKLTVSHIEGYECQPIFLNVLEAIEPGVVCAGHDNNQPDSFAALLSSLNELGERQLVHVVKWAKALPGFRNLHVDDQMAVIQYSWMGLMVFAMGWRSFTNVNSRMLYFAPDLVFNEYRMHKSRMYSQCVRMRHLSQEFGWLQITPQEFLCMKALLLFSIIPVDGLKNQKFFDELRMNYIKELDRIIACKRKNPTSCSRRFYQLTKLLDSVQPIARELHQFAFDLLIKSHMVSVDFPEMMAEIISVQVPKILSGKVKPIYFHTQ
T1 sequence (Q96SW2 whole entry partner): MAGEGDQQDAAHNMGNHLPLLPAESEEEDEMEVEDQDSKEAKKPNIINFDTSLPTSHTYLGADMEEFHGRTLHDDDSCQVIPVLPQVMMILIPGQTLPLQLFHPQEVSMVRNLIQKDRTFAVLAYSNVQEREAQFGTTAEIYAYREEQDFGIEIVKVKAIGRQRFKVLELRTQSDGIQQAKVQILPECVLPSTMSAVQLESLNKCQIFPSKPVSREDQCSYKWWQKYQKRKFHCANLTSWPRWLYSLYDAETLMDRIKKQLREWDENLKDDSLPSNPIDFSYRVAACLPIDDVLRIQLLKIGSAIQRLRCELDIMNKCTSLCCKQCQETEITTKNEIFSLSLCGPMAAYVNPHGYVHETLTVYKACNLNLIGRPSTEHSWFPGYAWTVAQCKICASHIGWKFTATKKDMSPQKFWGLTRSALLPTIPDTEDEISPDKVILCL
T1 sequence (Q16531 whole entry partner): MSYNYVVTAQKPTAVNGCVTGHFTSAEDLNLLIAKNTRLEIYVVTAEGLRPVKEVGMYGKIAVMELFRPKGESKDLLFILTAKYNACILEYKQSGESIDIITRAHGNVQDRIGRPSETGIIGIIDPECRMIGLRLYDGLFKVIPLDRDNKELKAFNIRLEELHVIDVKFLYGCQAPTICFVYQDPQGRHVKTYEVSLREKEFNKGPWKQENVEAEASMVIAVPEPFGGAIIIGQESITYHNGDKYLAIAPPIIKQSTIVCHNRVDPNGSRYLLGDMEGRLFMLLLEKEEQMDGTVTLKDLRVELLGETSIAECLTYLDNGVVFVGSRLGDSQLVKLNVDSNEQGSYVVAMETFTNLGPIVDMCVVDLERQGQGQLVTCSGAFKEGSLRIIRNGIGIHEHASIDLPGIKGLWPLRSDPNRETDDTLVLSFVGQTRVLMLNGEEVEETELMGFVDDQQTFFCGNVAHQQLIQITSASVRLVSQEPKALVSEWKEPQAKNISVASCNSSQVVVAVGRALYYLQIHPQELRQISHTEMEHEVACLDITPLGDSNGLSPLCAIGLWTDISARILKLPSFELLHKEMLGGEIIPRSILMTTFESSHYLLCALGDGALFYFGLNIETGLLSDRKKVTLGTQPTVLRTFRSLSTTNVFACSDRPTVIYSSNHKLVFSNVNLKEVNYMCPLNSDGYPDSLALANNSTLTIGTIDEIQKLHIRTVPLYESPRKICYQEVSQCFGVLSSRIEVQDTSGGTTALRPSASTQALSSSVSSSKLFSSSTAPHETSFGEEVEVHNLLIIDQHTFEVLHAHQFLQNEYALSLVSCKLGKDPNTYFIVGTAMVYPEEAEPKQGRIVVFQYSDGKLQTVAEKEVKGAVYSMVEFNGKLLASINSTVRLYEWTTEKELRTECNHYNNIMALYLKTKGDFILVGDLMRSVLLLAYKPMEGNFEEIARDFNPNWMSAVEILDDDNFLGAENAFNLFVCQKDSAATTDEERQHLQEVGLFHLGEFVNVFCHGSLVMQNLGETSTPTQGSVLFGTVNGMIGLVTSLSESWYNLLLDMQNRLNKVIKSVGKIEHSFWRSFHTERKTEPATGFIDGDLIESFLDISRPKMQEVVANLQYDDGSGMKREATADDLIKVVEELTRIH
Briefly: Androgen Receptor Degradation Assay (Nano-Glo HiBiT). It is filed as cell-based. As to conditions: LNCaP, 18 h, HiBiT-tagged AR in human LnCaP cells, read-out: mean asymptote max. In a few lines:
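LnCaP cells with CRISPR-knocked-in N-terminal HiBiT-tagged AR (10,000/well) treated 18 h at 37 °C with PROTACs over 11 threefold concentrations; lytic HiBiT luminescence normalised to DMSO (0%) and cell-free (100%) controls. Relative DC50 = 4-parameter fit inflection; absolute DC50 = 50% degradation interpolation; Dmax = maximum observed degradation.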

Counter-ions that a name gives are not always drawn.

On to `N#Cc1ccc(O[C@H]2CC[C@H](NC(=O)c3ccc(N4CCC(CN5CCC(n6ccc7c(N8CCC(=O)NC8=O)cccc76)CC5)CC4)nn3)CC2)cc1Cl` [EAR23, N-((1r,4r)-4-(3-Chloro-4-cyanophenoxy)cyclohexyl)-6-(4-((4-(4-(2,4-dioxotetrahydropyrimidin-1(2H)-yl)-1H-indol-1-yl)piperidin-1-yl)methyl)piperidin-1-yl)pyridazine-3-carboxamide], for which the Dmax is ≥ 50%.
As for `N#Cc1ccc(O[C@H]2CC[C@H](NC(=O)c3cnc(N4CCC(CN5CCC(n6ncc7c(N8CCC(=O)NC8=O)cccc76)CC5)CC4)cn3)CC2)cc1C(F)(F)F` [EAR38, N-((1r,4r)-4-(4-Cyano-3-(trifluoromethyl)phenoxy)cyclohexyl)-5-(4-((4-(4-(2,4-dioxotetrahydropyrimidin-1(2H)-yl)-1H-indazol-1-yl)piperidin-1-yl)methyl)piperidin-1-yl)pyrazine-2-carboxamide hydrochloride], the Dmax is ≥ 50%.
Regarding `N#Cc1ccc(O[C@H]2CC[C@H](NC(=O)c3cnc(N4CCC(CN5CCC(n6ccc7c(N8CCC(=O)NC8=O)cncc76)CC5)CC4)cn3)CC2)cc1C(F)(F)F` [AR15, N-((1r,4r)-4-(4-Cyano-3-(trifluoromethyl)phenoxy)cyclohexyl)-5-(4-((4-(4-(2,4-dioxotetrahydropyrimidin-1(2H)-yl)-1H-pyrrolo[2,3-c]pyridin-1-yl)piperidin-1-yl)methyl)piperidin-1-yl)pyrazine-2-carboxamide], the Dmax is ≥ 50%.
For `N#Cc1ccc(O[C@H]2CC[C@H](NC(=O)c3ccc(OCCCCN4CCC(n5ccc6c(N7CCC(=O)NC7=O)cccc65)CC4)cn3)CC2)cc1Cl` [EAR66, N-((1r,4r)-4-(3-chloro-4-cyanophenoxy)cyclohexyl)-5-(4-(4-(4-(2,4-dioxotetrahydropyrimidin-1(2H)-yl)-1H-indol-1-yl)piperidin-1-yl)butoxy)picolinamide] the value was ≥ 50%; for `N#Cc1ccc(O[C@H]2CC[C@H](NC(=O)c3ccc(N4CCC(CN5CCC(n6ncc7c(N8CCC(=O)NC8=O)ccnc76)CC5)CC4)nn3)CC2)cc1C(F)(F)F` [EAR210, N-((1r,4r)-4-(4-Cyano-3-(trifluoromethyl)phenoxy)cyclohexyl)-6-(4-((4-(4-(2,4-dioxotetrahydropyrimidin-1(2H)-yl)-1H-pyrazolo[3,4-b]pyridin-1-yl)piperidin-1-yl)methyl)piperidin-1-yl)pyridazine-3-carboxamide], ≥ 50%.
Take `N#Cc1ccc(O[C@H]2CC[C@H](NC(=O)c3ccc(N4CC[C@@H](CN5CCC(n6ncc7c(N8CCC(=O)NC8=O)cccc76)CC5)C4)nn3)CC2)cc1Cl` [EAR239, N-((1r,4R)-4-(3-chloro-4-cyanophenoxy)cyclohexyl)-6-((S)-3-((4-(4-(2,4-dioxotetrahydropyrimidin-1(2H)-yl)-1H-indazol-1-yl)piperidin-1-yl)methyl)pyrrolidin-1-yl)pyridazine-3-carboxamide]: the Dmax was ≥ 50%.
Consider `N#Cc1ccc(O[C@H]2CC[C@H](NC(=O)c3cnc(N4CCC(CN5CCC(n6ccc7c(N8CCC(=O)NC8=O)cccc76)CC5)CC4)cn3)CC2)cc1C(F)(F)F` [EAR22, N-((1r,4r)-4-(4-Cyano-3-(trifluoromethyl)phenoxy)cyclohexyl)-5-(4-((4-(4-(2,4-dioxotetrahydropyrimidin-1(2H)-yl)-1H-indol-1-yl)piperidin-1-yl)methyl)piperidin-1-yl)pyrazine-2-carboxamide hydrochloride], for which the Dmax was ≥ 50%.
Under `N#Cc1ccc(O[C@H]2CC[C@H](NC(=O)c3ccc(N4CCC(CN5CCC(n6ccc7c(N8CCC(=O)NC8=O)nccc76)CC5)CC4)nn3)CC2)cc1C(F)(F)F` [EAR204, N-((1r,4r)-4-(4-Cyano-3-(trifluoromethyl)phenoxy)cyclohexyl)-6-(4-((4-(4-(2,4-dioxotetrahydropyrimidin-1(2H)-yl)-1H-pyrrolo[3,2-c]pyridin-1-yl)piperidin-1-yl)methyl)piperidin-1-yl)pyridazine-3-carboxamide] stands ≥ 50%.
For `N#Cc1ccc(O[C@H]2CC[C@H](NC(=O)c3ccc(N4CCC[C@@H](CN5CCC(n6ncc7c(N8CCC(=O)NC8=O)cccc76)CC5)C4)nn3)CC2)cc1Cl` [EAR153, N-((1r,4S)-4-(3-Chloro-4-cyanophenoxy)cyclohexyl)-6-((S)-3-((4-(4-(2,4-dioxotetrahydropyrimidin-1(2H)-yl)-1H-indazol-1-yl)piperidin-1-yl)methyl)piperidin-1-yl)pyridazine-3-carboxamide, formic acid salt] the value was ≥ 50%.
Consider `N#Cc1ccc(O[C@H]2CC[C@H](NC(=O)c3ccc(N4CCC(CN5CCC(n6ccc7c(N8CCC(=O)NC8=O)cccc76)CC5)CC4)cc3)CC2)cc1Cl` [EAR169, N-((1r,4r)-4-(3-chloro-4-cyanophenoxy)cyclohexyl)-4-(4-((4-(4-(2,4-dioxotetrahydropyrimidin-1(2H)-yl)-1H-indol-1-yl)piperidin-1-yl)methyl)piperidin-1-yl)benzamide], for which the Dmax is ≥ 50%.
Under `CC(C)n1ccc2c(N3CCC(=O)NC3=O)cc(C(=O)N3CCN(CC4CCN(c5ncc(NC(=O)N6C[C@H](C)N(c7ccc(C#N)c(Cl)c7)C[C@H]6C)cn5)CC4)CC3)cc21` [EAR107, (2R,5S)-4-(3-Chloro-4-cyanophenyl)-N-(2-(4-((4-(4-(2,4-dioxotetrahydropyrimidin-1(2H)-yl)-1-isopropyl-1H-indole-6-carbonyl)piperazin-1-yl)methyl)piperidin-1-yl)pyrimidin-5-yl)-2,5-dimethylpiperazine-1-carboxamide] stands ≥ 50%; under `N#Cc1ccc(O[C@H]2CC[C@H](NC(=O)c3cnc(N4CCC(CN5CCC(n6ccc7c(N8CCC(=O)NC8=O)cc(F)cc76)CC5)CC4)cn3)CC2)cc1Cl` [EAR202, N-((1r,4r)-4-(3-Chloro-4-cyanophenoxy)cyclohexyl)-5-(4-((4-(4-(2,4-dioxotetrahydropyrimidin-1(2H)-yl)-6-fluoro-1H-indol-1-yl)piperidin-1-yl)methyl)piperidin-1-yl)pyrazine-2-carboxamide hydrochloride], ≥ 50%; under `N#Cc1ccc(O[C@H]2CC[C@H](NC(=O)c3cnc(N4CCC(CN5CCC(n6ccc7c(N8CCC(=O)NC8=O)ncnc76)CC5)CC4)nc3)CC2)cc1Cl` [EAR200, N-((1r,4r)-4-(3-Chloro-4-cyanophenoxy)cyclohexyl)-2-(4-((4-(4-(2,4-dioxotetrahydropyrimidin-1(2H)-yl)-7H-pyrrolo[2,3-d]pyrimidin-7-yl)piperidin-1-yl)methyl)piperidin-1-yl)pyrimidine-5-carboxamide hydrochloride], ≥ 50%.
For `N#Cc1ccc(O[C@H]2CC[C@H](NC(=O)c3ccc(N4CCC(CN5CC6(CC(n7ccc8c(N9CCC(=O)NC9=O)cccc87)C6)C5)CC4)nn3)CC2)cc1Cl` [EAR173, N-((1r,4r)-4-(3-Chloro-4-cyanophenoxy)cyclohexyl)-6-(4-((6-(4-(2,4-dioxotetrahydropyrimidin-1(2H)-yl)-1H-indol-1-yl)-2-azaspiro[3.3]heptan-2-yl)methyl)piperidin-1-yl)pyridazine-3-carboxamide] the value was ≥ 50%; for `CC1CC(CN2CCC(n3ncc4c(N5CCC(=O)NC5=O)cccc43)CC2)CCN1c1ccc(C(=O)N[C@H]2CC[C@H](Oc3ccc(C#N)c(Cl)c3)CC2)nn1` (some centres unmarked) [EAR229], ≥ 50%; for `N#Cc1ccc(O[C@H]2CC[C@H](NC(=O)c3cnc(N4CCC(CN5CCC(n6ccc7c(N8CCC(=O)NC8=O)nccc76)CC5)CC4)cn3)CC2)cc1C(F)(F)F` [EAR181, N-((1r,4r)-4-(4-Cyano-3-(trifluoromethyl)phenoxy)cyclohexyl)-5-(4-((4-(4-(2,4-dioxotetrahydropyrimidin-1(2H)-yl)-1H-pyrrolo[3,2-c]pyridin-1-yl)piperidin-1-yl)methyl)piperidin-1-yl)pyrazine-2-carboxamide], ≥ 50%.
For the compound `N#Cc1ccc(O[C@H]2CC[C@H](NC(=O)c3ccc(N4CCC(OCCN5CCC(n6ncc7c(N8CCC(=O)NC8=O)cccc76)CC5)CC4)nn3)CC2)cc1Cl` [EAR231, N-((1r,4r)-4-(3-chloro-4-cyanophenoxy)cyclohexyl)-6-(4-(2-(4-(4-(2,4-dioxotetrahydropyrimidin-1(2H)-yl)-1H-indazol-1-yl)piperidin-1-yl)ethoxy)piperidin-1-yl)pyridazine-3-carboxamide], the Dmax was ≥ 50%.
Regarding `N#Cc1ccc(O[C@H]2CC[C@H](NC(=O)c3ccc(N4CCC(CN5CCC(n6ccc7c(N8CCC(=O)NC8=O)cccc76)CC5)CC4)c(F)c3)CC2)cc1Cl` [EAR206, N-((1r,4r)-4-(3-Chloro-4-cyanophenoxy)cyclohexyl)-4-(4-((4-(4-(2,4-dioxotetrahydropyrimidin-1(2H)-yl)-1H-indol-1-yl)piperidin-1-yl)methyl)piperidin-1-yl)-3-fluorobenzamide], the Dmax was ≥ 50%.
For `C[C@@H]1CN(c2ccc(C#N)c(Cl)c2)[C@@H](C)CN1C(=O)c1ccc(OCCN2CCC(n3ncc4c(N5CCC(=O)NC5=O)cncc43)CC2)nc1` [EAR174, 2-Chloro-4-((2S,5R)-4-(6-(2-(4-(4-(2,4-dioxotetrahydropyrimidin-1(2H)-yl)-1H-pyrazolo[3,4-c]pyridin-1-yl)piperidin-1-yl)ethoxy)nicotinoyl)-2,5-dimethylpiperazin-1-yl)benzonitrile], the Dmax is ≥ 50%.
As to `CC1(CN2CCC(n3ncc4c(N5CCC(=O)NC5=O)cccc43)CC2)CN(c2ccc(C(=O)N[C@H]3CC[C@H](Oc4ccc(C#N)c(Cl)c4)CC3)nn2)C1` [EAR240, N-((1r,4r)-4-(3-chloro-4-cyanophenoxy)cyclohexyl)-6-(3-((4-(4-(2,4-dioxotetrahydropyrimidin-1(2H)-yl)-1H-indazol-1-yl)piperidin-1-yl)methyl)-3-methylazetidin-1-yl)pyridazine-3-carboxamide], the Dmax is ≥ 50%.
